# Source: patent publication US20160193148A1, “LIPOSOMAL FORMULATIONS FOR THE TREATMENT OF BACTERIAL INFECTIONS” (UNIVERSITY OF GEORGIA RESEARCH FOUNDATION, INC., priority 2013, published 2016)
# Tested on: R. equi
# Assay: Intracellular killing of R. equi in J774.A1 macrophages
# Format: cell-based, Rhodococcus equi
# Settings: 10 μg/mL; J774.A1 macrophages infected with virulent R. equi; 4 experiments
# Description: The efficacy of liposomal gentamicin compared with clarithromycin or rifampin for intracellular killing of R. equi in J774.A1 macrophages were studies in this example. […] The final concentration of gentamicin in the liposome formulations was measured and the percentage of encapsulation was calculated.
# In vitro infection of J774A.1 macrophages with virulent R. equi and subsequent treatment with liposomal gentamicin (G-DP or G-PEG), clarithromycin (CLR), or rifampin (RIF) at a concentration of 10 μg/mL was performed using a published methodology (i.e. Berghaus et al. Plasma pharmacokinetics, pulmonary distribution, and in vitro activity of gamithromycin in foals. J Vet Pharmacol Ther. 2012 February; 35(1):59-66). […] Fold reduction in the number of intracellular R. equi compared to untreated cells in J774.A1 macrophages infected with virulent R. equi are presented in FIG. 2, showing mean (±SD) of 4 independent experiments.
row,Structure (SMILES),mean fold-reduction in the number of intracellular R. equi compared to untreated cells
1,"CO[C@H]1/C=C/O[C@@]2(C)Oc3c(C)c(O)c4c(O)c(c(/C=N/N5CCN(C)CC5)c(O)c4c3C2=O)NC(=O)/C(C)=C\C=C\[C@H](C)[C@H](O)[C@@H](C)[C@@H](O)[C@@H](C)[C@H](OC(C)=O)[C@@H]1C [RIF, rifampin]",1500 fold
2,"CC[C@H]1OC(=O)[C@H](C)[C@@H](O[C@H]2C[C@@](C)(OC)[C@@H](O)[C@H](C)O2)[C@H](C)[C@@H](O[C@@H]2O[C@H](C)C[C@H](N(C)C)[C@H]2O)[C@](C)(OC)C[C@@H](C)C(=O)[C@H](C)[C@@H](O)[C@]1(C)O [CLR, clarithromycin]",1100 fold
